Experiments:
human LoVo tumour cells = assay: LoVo tumour model; type: in vivo, athymic nude mice; conditions: s.c. LoVo xenograft; ZD6126 200 mg/kg i.p. day 0; ZD1839 200 mg/kg/day p.o. days 0-13; 8 mice per group
Experimental: Athymic nude mice were implanted subcutaneously with 1.5×10^7 human LoVo tumour cells (obtained from European Collection of Cell Cultures, ECACC, CAMR, Salisbury, Wiltshire, SP4 0JG, UK; Cat. no. CCL 229) and tumours allowed to grow until they were approximately 9 mm in diameter. Groups of 8 tumour bearing mice were then treated as follows: • Control animals were dosed with PBSA 0.1 ml/10 g intraperitoneally (i.p.) single bolus on day 0 then about 2 h hours later 0.1% Tween 80 0.1 ml/10 g orally (p.o.) on day 0, followed by 0.1% Tween 80 0.1 ml/10 g p.o. once daily on days 1-13; • ZD6126 alone was dosed 200 mg/kg i.p. on day 0; • ZD1839 alone was dosed 200 mg/kg/day p.o. on days 0-13; and
(in the combination arm) ZD6126 200 mg/kg i.p. on day 0 then about 2 hours later ZD1839 200 mg/kg p.o. dosed on day 0, followed by ZD1839 200 mg/kg p.o. once daily on days 1-13. Tumour growth was measured twice weekly from calliper measurements of tumour diameter and the time taken for tumours to double in size compared using the Mann-Whitney U statistic.

A549 human NSCLC cells = assay: A549 NSCLC xenograft model; conditions: for Tumour size: day 42 after tumour implantation, RT 4 Gy days 8, 9, 15, 16, ZD6126 150 mg/kg i.p. days 10, 17, ZD1839 2.5 mg per day p.o. days 7-11 and 14-18
Experimental: A549 NSCLC Xenograft Model
A human non-small cell lung cancer (NSCLC) xenograft model was used. Athymic nude mice were injected subcutaneously (s.c.) with A549 human NSCLC cells. Treatment began after 7 days when tumours were established (tumour volume=100-300 mm^3). […] Animals in all groups were sacrificed on day 42 after tumour cell implantation, when the control tumours reached approximately 2.0 cm^3.

tumour vasculature = conditions: reported in Proc. Am Assoc. Cancer Res. 2000; 41: 329; cited from earlier work

Structure (SMILES)	Growth delay in days for tumours to double in size (human LoVo tumour cells)	Tumour size (A549 human NSCLC cells) [cm^3 S.D.]	inhibition of tumour growth (in words) (A549 human NSCLC cells; A549 xenograft, compared with control animals or single agents)	effect on tumour vasculature (in words) (tumour vasculature)
COc1cc2ncnc(Nc3ccc(F)c(Cl)c3)c2cc1OCCCN1CCOCC1 [ZD1839, N-(3-chloro-4-fluorophenyl)-7-methoxy-6-(3-morpholinopropoxy)quinazolin-4-amine, reference compound]	8.3 days; p < 0.01	1.41 ± 0.08	–	–
COc1cc2c(c(OC)c1OC)-c1ccc(OP(=O)(O)O)cc1[C@@H](NC(C)=O)CC2 [ZD6126, N-acetylcolchinol-O-phosphate]	3.6 days; p < 0.05	1.17 ± 0.10	marked inhibition of tumour growth	selectively disrupts tumour vasculature leading to vessel occlusion and extensive tumour necrosis

Reference: US20050215530A1, “Combination therapy for the treatment of cancer” (priority 2002, published 2005)
